Active and inactive are the calls of the source.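 Rule for the calls: active = a rise in signal, meaning less cAMP, whose fitted curve reaches 40% at or below the top valid tested dose; inconclusive = flat fit between 30% and 70%, or a poor fit; inactive = the rest.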 Bounds are passed on as bounds.

In PubChem BioAssay AID977609 (Broad Institute, 2014) one finds AC40 and inhibition of cAMP data, which are given here for 53 compounds.

One assay has as its system Drosophila melanogaster bursicon receptor LGR2 (rickets). Briefly: LGR2 antagonists blocking bursicon cAMP, dose response, orthogonal assay for LGR2 antagonist project, cell-based, HEK293 transfected, TR-FRET cAMP, dry powder (AID 977609). To be noted: bursicon-stimulated cAMP, Lance TR-FRET. In general terms: Time-resolved FRET reads energy transfer from a long-lived donor to a nearby acceptor.
In the case of `C[C@H]1CCCCO[C@@H](CN(C)C(=O)Nc2ccc3c(c2)OCO3)[C@@H](C)CN([C@@H](C)CO)C(=O)c2cc(NC(=O)NC3CCCCC3)ccc2O1`, the AC40 is 3.79 µM.

In the case of `CC(=O)Nc1ccc2c(c1)C(=O)N([C@H](C)CO)C[C@H](C)[C@H](CN(C)C(=O)Nc1ccc(F)cc1)OCCCC[C@H](C)O2`, the AC40 was > 50 µM (inactive).

On to `C[C@H](CO)N1C[C@H](C)[C@H](CN(C)C(=O)Nc2ccc(F)cc2)OCCCC[C@H](C)Oc2ccc(NC(=O)C3CCCCC3)cc2C1=O`, for which the AC40 is 0.501 µM.

For the compound `C[C@H]1CCCCO[C@@H](CN(C)C(=O)Nc2ccccc2)[C@@H](C)CN([C@@H](C)CO)C(=O)c2cc(NC(=O)NC3CCCCC3)ccc2O1`, the AC40 was 3.58 µM.

Take `C[C@H]1CCCCO[C@@H](CN(C)C(=O)Nc2ccc(F)cc2)[C@@H](C)CN([C@@H](C)CO)C(=O)c2cc(NC(=O)C3CCCCC3)ccc2O1`: the AC40 was 1.38 µM.

On to `C[C@H](CO)N1C[C@H](C)[C@H](CN(C)C(=O)Nc2cccc3ccccc23)OCCCC[C@H](C)Oc2ccc(NC(=O)CCC(F)(F)F)cc2C1=O`, for which the AC40 was 1.95 µM.

As to `C[C@@H]1CCCCO[C@@H](CN(C)C(=O)Nc2cccc3ccccc23)[C@H](C)CN([C@@H](C)CO)C(=O)c2cc(NC(=O)C3CCCCC3)ccc2O1`, the AC40 is > 50 µM (inactive).

Consider `C[C@H](CO)N1C[C@H](C)[C@H](CN(C)C(=O)Nc2ccccc2)OCCCC[C@H](C)Oc2ccc(NC(=O)Nc3ccc4c(c3)OCO4)cc2C1=O`, for which the AC40 was 7.54 µM.

With `C[C@H](CO)N1C[C@H](C)[C@H](CN(C)C(=O)Nc2cccc3ccccc23)OCCCC[C@H](C)Oc2ccc(NC(=O)C3CCCCC3)cc2C1=O`, the AC40 is 0.129 µM.

On to `C[C@H](CO)N1C[C@H](C)[C@H](CN(C)C(=O)Nc2ccc(F)cc2)OCCCC[C@H](C)Oc2ccc(NC(=O)C3CC3)cc2C1=O`, for which the AC40 is 49.6 µM.

Consider `C[C@H](CO)N1C[C@H](C)[C@H](CN(C)C(=O)Nc2ccccc2)OCCCC[C@H](C)Oc2ccc(NC(=O)CCC(F)(F)F)cc2C1=O`, for which the AC40 is 1.53 µM.

On to `C[C@H](CO)N1C[C@H](C)[C@H](CN(C)C(=O)Nc2ccc3ccccc3c2)OCCCC[C@H](C)Oc2ccc(NC(=O)C3CCCCC3)cc2C1=O`, for which the AC40 was 0.219 µM.

`C[C@H](CO)N1C[C@H](C)[C@H](CN(C)C(=O)Nc2ccc(F)cc2)OCCCC[C@H](C)Oc2ccc(NC(=O)C3CCCC3)cc2C1=O`: the AC40 is 1.75 µM.

For `C[C@H](CO)N1C[C@H](C)[C@H](CN(C)C(=O)Nc2ccc(Cl)cc2)OCCCC[C@H](C)Oc2ccc(NC(=O)C3CCCCC3)cc2C1=O`, the AC40 is 0.853 µM.

Turning to `C[C@H](CO)N1C[C@H](C)[C@H](CN(C)C(=O)Nc2cccc3ccccc23)OCCCC[C@H](C)Oc2ccc(NC(=O)NC3CCCCC3)cc2C1=O`, the AC40 is 1.65 µM.

Regarding `C[C@H](CO)N1C[C@H](C)[C@H](CN(C)C(=O)Nc2ccc(F)cc2)OCCCC[C@H](C)Oc2ccc(NC(=O)Nc3ccc(F)cc3)cc2C1=O`, the AC40 was 4.69 µM.

Take `C[C@H](CO)N1C[C@H](C)[C@H](CN(C)C(=O)Nc2ccc(F)cc2)OCCCC[C@H](C)Oc2ccc(NC(=O)Nc3ccccc3)cc2C1=O`: the AC40 is 2.89 µM.

With `COc1ccc(NC(=O)N(C)C[C@@H]2OCCCC[C@H](C)Oc3ccc(NC(=O)NC4CCCCC4)cc3C(=O)N([C@H](C)CO)C[C@@H]2C)cc1`, the AC40 was 2.04 µM.

Take `COc1ccc(NC(=O)N(C)C[C@@H]2OCCCC[C@H](C)Oc3ccc(NC(=O)C4CCCCC4)cc3C(=O)N([C@H](C)CO)C[C@@H]2C)cc1`: the AC40 was 1.48 µM.

On to `Cc1ccc(NC(=O)N(C)C[C@@H]2OCCCC[C@H](C)Oc3ccc(NC(=O)C4CCCCC4)cc3C(=O)N([C@H](C)CO)C[C@@H]2C)cc1`, for which the AC40 was 1.05 µM.

On to `C[C@H]1CCCCO[C@@H](CN(C)C(=O)Nc2ccc(C(F)(F)F)cc2)[C@@H](C)CN([C@@H](C)CO)C(=O)c2cc(NC(=O)CCC(F)(F)F)ccc2O1`, for which the AC40 was 2.16 µM.

With `C[C@@H]1CCCCO[C@H](CN(C)C(=O)Nc2cccc3ccccc23)[C@@H](C)CN([C@@H](C)CO)C(=O)c2cc(NC(=O)C3CCCCC3)ccc2O1`, the AC40 is > 50 µM (inactive).

For `C[C@H](CO)N1C[C@H](C)[C@H](CN(C)C(=O)Nc2ccc(C(F)(F)F)cc2)OCCCC[C@H](C)Oc2ccc(NC(=O)NC3CCCCC3)cc2C1=O`, the AC40 is 2.71 µM.

As for `C[C@H](CO)N1C[C@H](C)[C@H](CN(C)C(=O)Nc2ccccc2F)OCCCC[C@H](C)Oc2ccc(NC(=O)C3CCCCC3)cc2C1=O`, the AC40 is 0.515 µM.

Consider `C[C@@H]1CN([C@H](C)CO)C(=O)c2cc(NC(=O)C3CCCCC3)ccc2O[C@@H](C)CCCCO[C@@H]1CN(C)C(=O)Nc1cccc2ccccc12`, for which the AC40 is > 50 µM (inactive).

As to `C[C@H]1CCCCO[C@H](CN(C)C(=O)Nc2cccc3ccccc23)[C@@H](C)CN([C@@H](C)CO)C(=O)c2cc(NC(=O)C3CCCCC3)ccc2O1`, the AC40 is > 50 µM (inactive).

Turning to `C[C@@H]1CCCCO[C@@H](CN(C)C(=O)Nc2cccc3ccccc23)[C@@H](C)CN([C@@H](C)CO)C(=O)c2cc(NC(=O)C3CCCCC3)ccc2O1`, the AC40 was > 50 µM (inactive).

On to `C[C@H](CO)N1C[C@H](C)[C@H](CN(C)C(=O)Nc2ccc3c(c2)OCO3)OCCCC[C@H](C)Oc2ccc(NC(=O)C3CCCCC3)cc2C1=O`, for which the AC40 was 0.837 µM.

With `C[C@H](CO)N1C[C@H](C)[C@@H](CN(C)C(=O)Nc2cccc3ccccc23)OCCCC[C@H](C)Oc2ccc(NC(=O)C3CCCCC3)cc2C1=O`, the AC40 was > 50 µM (inactive).

`C[C@@H]1CN([C@H](C)CO)C(=O)c2cc(NC(=O)C3CCCCC3)ccc2O[C@@H](C)CCCCO[C@H]1CN(C)C(=O)Nc1cccc2ccccc12`: the AC40 was > 50 µM (inactive).

As to `C[C@H](CO)N1C[C@H](C)[C@H](CN(C)C(=O)Nc2ccccc2)OCCCC[C@H](C)Oc2ccc(NC(=O)NC3CCCCC3)cc2C1=O`, the AC40 is 3.22 µM.

Take `C[C@H](CO)N1C[C@H](C)[C@H](CN(C)C(=O)Nc2ccccc2)OCCCC[C@H](C)Oc2ccc(NC(=O)C3CCCCC3)cc2C1=O`: the AC40 was 0.736 µM.

As to `C[C@H]1CCCCO[C@@H](CN(C)C(=O)Nc2cccc3ccccc23)[C@@H](C)CN([C@@H](C)CO)C(=O)c2cc(NC(=O)C3CCCCC3)ccc2O1`, the AC40 was 0.353 µM.

On to `C[C@H](CO)N1C[C@H](C)[C@H](CN(C)C(=O)Nc2ccc(F)cc2)OCCCC[C@H](C)Oc2ccc(NC(=O)C3CCC3)cc2C1=O`, for which the AC40 was 4.98 µM.

For the compound `C[C@H](CO)N1C[C@H](C)[C@H](CN(C)C(=O)Nc2ccc(F)cc2)OCCCC[C@H](C)Oc2ccc(NC(=O)NC3CCCCC3)cc2C1=O`, the AC40 was 3.91 µM.

In the case of `C[C@H](CO)N1C[C@H](C)[C@H](CN(C)C(=O)Nc2ccc(F)cc2)OCCCC[C@H](C)Oc2ccc(NC(=O)C3CCCCCC3)cc2C1=O`, the AC40 is 0.248 µM.

`C[C@@H]1CN([C@@H](C)CO)C(=O)c2cc(NC(=O)C3CCCCC3)ccc2O[C@@H](C)CCCCO[C@H]1CN(C)C(=O)Nc1cccc2ccccc12`: the AC40 was > 50 µM (inactive).

For the compound `C[C@H](CO)N1C[C@H](C)[C@H](CN(C)C(=O)Nc2ccccc2)OCCCC[C@H](C)Oc2ccc(NC(=O)Nc3ccccc3)cc2C1=O`, the AC40 was 5.86 µM.

For `C[C@H](CO)N1C[C@H](C)[C@H](CN(C)C(=O)Nc2ccc(F)cc2)OCCCC[C@H](C)Oc2ccc(NC(=O)C3CCOCC3)cc2C1=O`, the AC40 is 25 µM.

With `C[C@H]1CCCCO[C@@H](CN(C)S(=O)(=O)c2ccc(Cl)cc2)[C@@H](C)CN([C@@H](C)CO)C(=O)c2cc(NC(=O)NC3CCCCC3)ccc2O1`, the AC40 was > 50 µM (inactive).

In the case of `COc1ccc(S(=O)(=O)N(C)C[C@@H]2OCCCC[C@H](C)Oc3ccc(NS(=O)(=O)c4ccc(F)cc4)cc3C(=O)N([C@@H](C)CO)C[C@@H]2C)cc1`, the AC40 was > 50 µM (inactive).

Consider `C[C@@H]1CCCCO[C@H](CN(C)C(=O)Nc2cccc3ccccc23)[C@H](C)CN([C@H](C)CO)C(=O)c2cc(NC(=O)C3CCCCC3)ccc2O1`, for which the AC40 was > 50 µM (inactive).

As to `C[C@H](CO)N1C[C@H](C)[C@H](CN(C)C(=O)Nc2cccc3ccccc23)OCCCC[C@H](C)Oc2ccc(NC(=O)c3ccccc3)cc2C1=O`, the AC40 is 2.49 µM.

`C[C@@H]1CCCCO[C@H](CN(C)C(=O)Nc2cccc3ccccc23)[C@@H](C)CN([C@H](C)CO)C(=O)c2cc(NC(=O)C3CCCCC3)ccc2O1`: the AC40 is > 50 µM (inactive).

For the compound `C[C@H](CO)N1C[C@H](C)[C@H](CN(C)C(=O)Nc2cccc(F)c2)OCCCC[C@H](C)Oc2ccc(NC(=O)C3CCCCC3)cc2C1=O`, the AC40 is 0.858 µM.

On to `C[C@H](CO)N1C[C@H](C)[C@H](CN(C)C(=O)Nc2ccc3c(c2)OCO3)OCCCC[C@H](C)Oc2ccc(NC(=O)NC3CCCCC3)cc2C1=O`, for which the AC40 is 5.49 µM.

Take `C[C@H](CO)N1C[C@H](C)[C@H](CN(C)C(=O)Nc2ccc(C(F)(F)F)cc2)OCCCC[C@H](C)Oc2ccc(NC(=O)CCC(F)(F)F)cc2C1=O`: the AC40 is 0.949 µM.

The assay is the same for the next values; noted with them: bursicon-stimulated cAMP, Lance TR-FRET, at 50 µM (top of the series).
For `C[C@@H]1CCCCO[C@H](CN(C)C(=O)Nc2cccc3ccccc23)[C@H](C)CN([C@@H](C)CO)C(=O)c2cc(NC(=O)C3CCCCC3)ccc2O1`, the inhibition of cAMP was 16% (inactive).

Consider `CC(C)(C)c1ccc(-c2nc(-c3ccncc3)no2)cc1`, for which the inhibition of cAMP was 9.18% (inactive).

Consider `C[C@@H]1CN([C@@H](C)CO)C(=O)c2cc(NC(=O)C3CCCCC3)ccc2O[C@@H](C)CCCCO[C@@H]1CN(C)C(=O)Nc1cccc2ccccc12`, for which the inhibition of cAMP was 10.1% (inactive).

Consider `C[C@@H]1CCCCO[C@@H](CN(C)C(=O)Nc2cccc3ccccc23)[C@@H](C)CN([C@H](C)CO)C(=O)c2cc(NC(=O)C3CCCCC3)ccc2O1`, for which the inhibition of cAMP is -2.89% (inactive).

Consider `C[C@@H]1CCCCO[C@@H](CN(C)C(=O)Nc2cccc3ccccc23)[C@H](C)CN([C@H](C)CO)C(=O)c2cc(NC(=O)C3CCCCC3)ccc2O1`, for which the inhibition of cAMP is -5.85% (inactive).

As to `COc1ccc(S(=O)(=O)N(C)C[C@@H]2OCCCC[C@H](C)Oc3ccc(NS(=O)(=O)c4ccc(Cl)cc4)cc3C(=O)N([C@@H](C)CO)C[C@@H]2C)cc1`, the inhibition of cAMP was 6.28% (inactive).
